Reference: PubChem BioAssay (NCI)
Values joined by “and” are separate entries in the source; they are usually repeats but may differ in a detail not shown here. Equal values may be shown once.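 A five-concentration, 48-hour dose response in 96-well plates underlies each endpoint, interpolated linearly between surrounding concentrations. Here, GI50 denotes the concentration required for 50% inhibition of growth. At the TGI there is no net growth.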

Columns and labels:
Assay in all cases: NCI tumour cell line growth inhibition, 48 h
[1] = system: KM12 colon
[2] = system: NCI-H226 lung
[3] = system: SF-295 CNS
[4] = system: SW-620 colon
[5] = system: SK-MEL-2 melanoma
[6] = system: MCF7 breast
[7] = system: UACC-62 melanoma
[8] = system: SNB-19 CNS
[9] = system: HOP-62 NSCLC
[10] = system: UACC-257 melanoma

COc1ccc(OC)c(-c2cc(-c3ccccc3)nn2-c2ccc(S(=O)(=O)NC(C)=O)cc2)c1
GI50 [1]: 4.66 µM
TGI [1]: 39.6 µM
GI50 [2]: 11.7 µM
TGI [2]: 24.8 µM
GI50 [3]: 16.1 µM
TGI [3]: 35.1 µM
GI50 [4]: 3.52 µM
TGI [4]: 9.15 µM
GI50 [5]: 36.2 µM
TGI [5]: > 100 µM
GI50 [6]: 2.38 µM
TGI [6]: > 100 µM
GI50 [7]: 10.9 µM
TGI [7]: 22.9 µM

O=C(CC(C(=O)c1cccs1)c1ccc2c(c1)OCO2)c1ccc(Br)cc1 (stereo not given)
TGI [1]: > 100 µM
TGI [2]: > 100 µM
TGI [3]: > 100 µM
TGI [4]: > 100 µM
TGI [8]: > 100 µM
TGI [9]: > 100 µM
TGI [10]: > 100 µM
TGI [6]: > 100 µM
TGI [7]: > 100 µM

COc1cc(-c2oc3ccccc3c(=O)c2O)cc(OC)c1OC
TGI [1]: > 100 µM
TGI [3]: > 100 µM
TGI [4]: > 100 µM
TGI [8]: > 100 µM
TGI [9]: 71.1 µM
TGI [10]: > 100 µM
TGI [5]: > 100 µM
TGI [6]: > 100 µM
TGI [7]: > 100 µM

CN1C2CC(C#N)C1C=CC2=O (stereo not given)
GI50 [1]: 16.9 µM and 88.2 µM
TGI [1]: 33.5 µM and > 100 µM
GI50 [2]: 24 µM and > 100 µM
TGI [2]: 59.6 µM and > 100 µM
TGI [3]: 19.1 µM and > 100 µM
GI50 [4]: 15.1 µM and 72.5 µM
TGI [4]: 43.7 µM and > 100 µM
TGI [8]: > 100 µM
GI50 [9]: 27.6 µM and > 100 µM
TGI [9]: 85.1 µM and > 100 µM
TGI [5]: 51.4 µM and > 100 µM
TGI [6]: > 100 µM
GI50 [7]: 27.7 µM and 63.2 µM
TGI [7]: > 100 µM

Cc1nc2c(n1CC(C)(C)C)C(=O)c1ccccc1C2=O
TGI [1]: > 100 µM
TGI [2]: > 100 µM
TGI [3]: > 100 µM
TGI [4]: > 100 µM
TGI [8]: > 100 µM
TGI [9]: > 100 µM
TGI [10]: > 100 µM
TGI [5]: > 100 µM
TGI [7]: > 100 µM
